Assay results taken from patent US20130178413A1, “HCV NS3 PROTEASE INHIBITORS” (priority 2010, published 2013).
Where two headings read alike, the source gives them in different places.

Assays:
gt 1b Replicon = test: HCV replicon assay, compound inhibitory potency (Replicon EC50); assay type: cell-based; conditions: Hepatitis C virus, GT1B
Method in brief: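 Stable replicon-harboring cells (neomycin phosphotransferase, some luciferase:Neor fusion) plated with compound dilution series without G418, incubated 24-48 h. Read-out: RNA by 32P-probe protection or TaqMan normalized to cyclophilin A RNA, or luciferase activity; EC50 as percent of DMSO control, four-parameter fit.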

NS3/4A protease gt 1b = NS3/4A protease gt 1b (Hepatitis C virus genotype 1b, UniProt P26663); test: HCV NS3 protease time-resolved fluorescence (TRF) assay, NS3/4A inhibitory activity (Ki), gt 1b; assay type: biochemical; conditions: genotype 1b NS3/4A; read-out: Enzyme Activity gt 1b Ki
Method in brief: (§1)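 NS3/4A protease (gt 1b, 1b A156V, 3a) pre-incubated 30 min with inhibitor in 50 mM HEPES pH 7.5, 150 mM NaCl, 15% glycerol, 0.15% Triton X-100, 10 mM DTT, 0.1% PEG 8000; 100 nM TRF peptide substrate, 1 h at room temperature, quenched with MES pH 5.5. Time-resolved fluorescence (ex 340/em 615 nm); four-parameter IC50 converted to Ki via IC50=Ki(1+[S]/KM).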

[1] = molecular target: NS3/4A protease gt 1b A156V (Hepatitis C virus genotype 1b, UniProt P26663, A1182V); test: HCV NS3 protease time-resolved fluorescence (TRF) assay, NS3/4A inhibitory activity (Ki), gt 1b A156V mutant; assay type: biochemical, hepatitis C virus (HCV)
Method in brief: as §1

NS3/4A protease gt 3a = NS3/4A protease gt 3a (Hepatitis C virus genotype 3a, UniProt Q81258); test: HCV NS3 protease time-resolved fluorescence (TRF) assay, NS3/4A inhibitory activity (Ki), gt 3a; assay type: biochemical; conditions: genotype 3a NS3/4A; read-out: Enzyme Activity gt 3a Ki
Method in brief: as §1

[2] = 10% Fetal Bovine Serum, read-out: gt 1b Replicon EC50 10% FBS
[3] = 50% Normal Human Serum, read-out: gt 1b Replicon EC50 50% NHS

Structure (SMILES)	EC50 (gt 1b Replicon; [2]) [nM]	EC50 (gt 1b Replicon; [3]) [nM]	Ki (NS3/4A protease gt 1b) [nM]	Ki [1] [nM]	Ki (NS3/4A protease gt 3a) [nM]
C=C[C@@H]1C[C@]1(NC(=O)[C@@H]1C[C@@H]2CN1C(=O)[C@H](C1CCCC1)NC(=O)O[C@]1(C)C[C@H]1CC/C=C/Cn1c(nc3cc(C)ccc3c1=O)O2)C(=O)NS(=O)(=O)C1(C)CC1 [Example I-24, (1aR,5S,8S,10R,20E,23aR)-5-cyclopentyl-N-[(1R,2S)-2-ethenyl-1-{[(1-methylcyclopropyl)sulfonyl]carbamoyl}cyclopropyl]-1a,14-dimethyl-3,6,17-trioxo-1,1a,3,4,5,6,9,10,19,22,23,23a-dodecahydro-8H,17H-7,10-methanocyclo propa[18,19][1,10,3,6,12] dioxatriazacyclo nonadecino[11,12-b]quinazoline-8-carboxamide]	2	8.5	0.02	0.9	0.7
C=C[C@@H]1C[C@]1(NC(=O)[C@@H]1C[C@@H]2CN1C(=O)[C@H](C1CCCC1)NC(=O)O[C@]1(C)C[C@H]1CC/C=C/Cn1c(nc3cc(Cl)ccc3c1=O)O2)C(=O)NS(=O)(=O)C1CC1 [Example I-26, (1aR,5S,8S,10R,20E,23aR)-14-chloro-5-cyclopentyl-N-{(1R,2S)-1-[(cyclopropylsulfonyl)carbamoyl]-2-ethenylcyclopropyl}-1a-methyl-3,6,17-trioxo-1,1a,3,4,5,6,9, 10,19,22,23,23a-dodecahydro-8H,17H-7,10-methano cyclopropa[18,19][1,10,3,6,12]dioxatriaza cyclononadecino[11,12-b]quinazoline-8-carboxamide]	3	13	0.02	1.6	0.8
C=C[C@@H]1C[C@]1(NC(=O)[C@@H]1C[C@@H]2CN1C(=O)[C@H](C1CCCC1)NC(=O)O[C@]1(C)C[C@H]1CCCCCn1c(nc3cc(C)ccc3c1=O)O2)C(=O)NS(=O)(=O)C1CC1 [Example I-27, (1aR,5S,8S,10R,23aR)-5-cyclopentyl-N-{(1R,2S)-1-[(cyclopropylsulfonyl)carbamoyl]-2-ethenylcyclopropyl}-1a,14-dimethyl-3,6,17-trioxo-1,1a,3,4,5,6,9, 10,19,22,21,22,23,23a-tetradecahydro-8H,17H-7,10-methanocyclopropa[18, 19][1,10,3,6,12]dioxatri azacyclononadecino [11,12-b]quinazoline-8-carboxamide]	2	6	0.04	4.1	2.8
C=C[C@@H]1C[C@]1(NC(=O)[C@@H]1C[C@@H]2CN1C(=O)[C@H](C1CCCC1)NC(=O)O[C@]1(C)C[C@H]1CCCCCc1nc3ccccc3nc1O2)C(=O)NS(=O)(=O)C1CC1 [Example I-28, (1aR,5S,8S,10R,22aR)-5-cyclopentyl-N-{(1R,2S)-1-[(cyclopropylsulfonyl)carbamoyl]-2-ethenylcyclopropyl}-1a-methyl-3,6-dioxo-1,1a,3,4,5,6,9,10,18,19, 20,21,22,22a-tetradecahydro-8H-7,10-methanocyclo propa[18,19][1,10,3,6] dioxadiazacyclonona decino[11,12-b]quinoxaline-8-carboxamide]	2	10	0.04	2.7	3.2
C=C[C@@H]1C[C@]1(NC(=O)[C@@H]1C[C@@H]2CN1C(=O)[C@H](C1CCCC1)NC(=O)O[C@]1(C)C[C@H]1CCCCCc1nc3ccccc3nc1O2)C(=O)NS(=O)(=O)C1(C)CC1 [Example I-29, (1aR,5S,8S,10R,22aR)-5-cyclopentyl-N-[(1R,2S)-2-ethenyl-1-{[(1-methylcyclopropyl)sulfonyl]carbamoyl}cyclopropyl]-1a-methyl-3,6-dioxo-1,1a,3,4,5,6,9,10,18,19, 20,21,22,22a-tetradecahydro-8H-7,10-methanocyclo propa[18,19][1,10,3,6] dioxadiazacyclonona decino[11,12-b]quinoxaline-8-carboxamide]	3	9	0.04	1.7	3.1
C=C[C@@H]1C[C@]1(NC(=O)[C@@H]1C[C@@H]2CN1C(=O)[C@H](C1CCCC1)NC(=O)O[C@]1(C)C[C@H]1CCCCCc1nc3cccc(OC)c3nc1O2)C(=O)NS(=O)(=O)C1CC1 [Example I-30, (1aR,5S,8S,10R,22aR)-5-cyclopentyl-N-{(1R,2S)-1-[(cyclopropylsulfonyl)carbamoyl]-2-ethenylcyclopropyl}-13-methoxy-1a-methyl-3,6-dioxo-1,1a,3,4,5,6,9,10,18,19,20,21,22,22a-tetradecahydro-8H-7,10-methanocyclo propa[18,19][1,10,3,6] dioxadiazacyclonona decino[11,12-b]quinoxaline-8-carboxamide]	1	5	0.02	1.9	2.2
CC[C@@H]1C[C@]1(NC(=O)[C@@H]1C[C@@H]2CN1C(=O)[C@H](C1CCCC1)NC(=O)O[C@]1(C)C[C@H]1CC/C=C/Cn1c(nc3cc(C)ccc3c1=O)O2)C(=O)NS(=O)(=O)C1CC1 [Example I-31, (1aR,5S,8S,10R,20E,23aR)-5-cyclopentyl-N-{(1R,2R)-1-[(cyclopropylsulfonyl)carbamoyl]-2-ethylcyclopropyl}-1a,14-dimethyl-3,6,17-trioxo-1,1a,3,4,5,6,9,10,19,22,23,23a-dodecahydro-8H,17H-7,10-methanocyclo propa[18,19][1,10,3,6, 12]dioxatriazacyclo nonadecino[11,12-b]quinazoline-8-carboxamide]	4	10	0.1	13.3	5.3
C=C[C@@H]1C[C@]1(NC(=O)[C@@H]1C[C@@H]2CN1C(=O)[C@H](C(C)(C)C)NC(=O)O[C@]1(C)C[C@H]1CCC/C=C/c1cccc3c1CN(C3)C(=O)O2)C(=O)NS(=O)(=O)C1(C)CC1 [Example I-32, (1aR,5S,8S,10R,19E,23aR)-5-tert-butyl-N-[(1R,2S)-2-ethenyl-1-{[(1-methylcyclopropyl)sulfonyl]carbamoyl}cyclopropyl]-1a-methyl-3,6,12-trioxo-1a,3,4,5,6,9, 10,14,21,22,23,23a-dodecahydro-1H,8H-7,10:13,15-dimethanocyclopropa [n][4,13,2,8,11]benzo dioxatriazacyclo docosine-8(12H)-carboxamide]	1	11	0.03	1	1.8
